Test results: PubChem BioAssay AID248 (DTP/NCI, 2004)
Where “and” joins values, the source holds several entries; their conditions need not be identical. Equal entries are not always repeated. Inconclusive results and toxic doses are left out. Rule as the data show it: active = T/C of 150% or more; inactive = T/C below 125%.

Tested on: L1210 leukemia ip in BDF1 mice, survival T/C
Test: NCI In Vivo Anticancer Drug Screen. Data for tumor model L1210 Leukemia (intraperitoneal) in B6D2F1 (BDF1) mice
Settings: endpoint: mean survival time, higher = longer survival
In short: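 Value reflects the ratio of survival in compound-treated mice to survival in vehicle-treated controls, with both groups carrying the same transplanted tumor.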

[1] = dose: 100.0 mg/kg/injection, schedule: Q01DX001 (ip), vehicle: Klucel (hydroxypropylcellulose) (HPC)
[2] = dose: 200.0 mg/kg/injection, schedule: Q01DX001 (ip), vehicle: Klucel (hydroxypropylcellulose) (HPC)
[3] = dose: 400.0 mg/kg/injection, schedule: Q01DX001 (ip), vehicle: Klucel (hydroxypropylcellulose) (HPC)
[4] = dose: 100.0 mg/kg/injection, schedule: Q01DX009 (ip), vehicle: saline with Tween-80
[5] = dose: 100.0 mg/kg/injection, schedule: Q04DX003 (ip), vehicle: saline with Tween-80
[6] = dose: 200.0 mg/kg/injection, schedule: Q01DX009 (ip), vehicle: saline with Tween-80
[7] = dose: 200.0 mg/kg/injection, schedule: Q04DX003 (ip), vehicle: saline with Tween-80
[8] = dose: 400.0 mg/kg/injection, schedule: Q01DX009 (ip), vehicle: saline with Tween-80
[9] = dose: 400.0 mg/kg/injection, schedule: Q04DX003 (ip), vehicle: saline with Tween-80
[10] = dose: 100.0 mg/kg/injection, schedule: Q01DX001 (ip), vehicle: acetone
[11] = dose: 200.0 mg/kg/injection, schedule: Q01DX001 (ip), vehicle: acetone
[12] = dose: 400.0 mg/kg/injection, schedule: Q01DX001 (ip), vehicle: acetone
[13] = dose: 100.0 mg/kg/injection, schedule: Q01DX001 (ip), vehicle: saline
[14] = dose: 200.0 mg/kg/injection, schedule: Q01DX001 (ip), vehicle: saline
[15] = dose: 100.0 mg/kg/injection, schedule: Q01DX009 (ip), vehicle: Klucel (hydroxypropylcellulose) (HPC)
[16] = dose: 200.0 mg/kg/injection, schedule: Q01DX009 (ip), vehicle: Klucel (hydroxypropylcellulose) (HPC)
[17] = dose: 100.0 mg/kg/injection, schedule: Q04DX002 (ip), vehicle: Klucel (hydroxypropylcellulose) (HPC)
[18] = dose: 200.0 mg/kg/injection, schedule: Q04DX002 (ip), vehicle: Klucel (hydroxypropylcellulose) (HPC)
[19] = dose: 100.0 mg/kg/injection, schedule: Q04DX002 (ip), vehicle: saline with Tween-80
[20] = dose: 200.0 mg/kg/injection, schedule: Q04DX002 (ip), vehicle: saline with Tween-80
[21] = dose: 400.0 mg/kg/injection, schedule: Q04DX002 (ip), vehicle: saline with Tween-80
[22] = dose: 25.0 mg/kg/injection, schedule: Q01DX009 (ip), vehicle: saline
[23] = dose: 50.0 mg/kg/injection, schedule: Q04DX002 (ip), vehicle: Klucel (hydroxypropylcellulose) (HPC)
[24] = dose: 25.0 mg/kg/injection, schedule: Q04DX003 (ip), vehicle: saline with Tween-80

Measured: T/C

CC(CP(c1ccccc1)c1ccccc1)(CP(c1ccccc1)c1ccccc1)CP(c1ccccc1)c1ccccc1
inactive: [1] 97 % of control | dose: 100.0 mg/kg/injection, schedule: Q04DX003 (ip), vehicle: Klucel (hydroxypropylcellulose) (HPC) 111 % of control | [2] 87 % of control | dose: 200.0 mg/kg/injection, schedule: Q04DX003 (ip), vehicle: Klucel (hydroxypropylcellulose) (HPC) 105 % of control | [3] 87 % of control | dose: 400.0 mg/kg/injection, schedule: Q04DX003 (ip), vehicle: Klucel (hydroxypropylcellulose) (HPC) 90 % of control

Cc1ccc(NC(=O)c2ccc([N+](=O)[O-])cc2)c(C)c1
inactive: [1] 91 % of control | [4] 96 % of control | [5] 94 % of control | [2] 94 % of control | [6] 102 % of control | [7] 96 % of control | [3] 112 % of control | [8] 96 % of control | [9] 99 % of control

CC(C)O/N=C(/N)N=C(N)N
inactive: dose: 100.0 mg/kg/injection, schedule: Q01DX001 (ip), vehicle: other 98 % of control | dose: 200.0 mg/kg/injection, schedule: Q01DX001 (ip), vehicle: other 106 % of control

S=c1ccnc[nH]1
inactive: dose: 100.0 mg/kg/injection, schedule: Q01DX Z (ip), vehicle: methylcellulose (MC) 87 % of control | dose: 200.0 mg/kg/injection, schedule: Q01DX Z (ip), vehicle: methylcellulose (MC) 88 % of control

CC(C)(C)NS(=O)(=O)/C=C/c1ccccc1
inactive: dose: 50.0 mg/kg/injection, schedule: Q01DX009 (ip), vehicle: acetone 95 % of control | [10] 101 % of control | dose: 100.0 mg/kg/injection, schedule: Q01DX009 (ip), vehicle: acetone 93 % of control | [11] 102 % of control | dose: 200.0 mg/kg/injection, schedule: Q01DX009 (ip), vehicle: acetone 92 % of control | [12] 96 % of control

CC1C(C)C23CCC12C(=O)C(O)C12CCC1(C(O)C3=O)C(C)C2C (centres undefined)
inactive: dose: 50.0 mg/kg/injection, schedule: Q01DX001 (ip), vehicle: saline 100 % of control | [13] 109 % of control | [14] 111 % of control

CSc1ccccc1C(O)Cc1ccc([N+](=O)[O-])cc1 (centres undefined)
inactive: [15] 105 % of control | dose: 100.0 mg/kg/injection, schedule: Q04DX003 (ip), vehicle: saline 98 % of control | [16] 93 % of control | dose: 200.0 mg/kg/injection, schedule: Q04DX003 (ip), vehicle: saline 98 % of control | dose: 400.0 mg/kg/injection, schedule: Q01DX009 (ip), vehicle: Klucel (hydroxypropylcellulose) (HPC) 96 % of control | dose: 400.0 mg/kg/injection, schedule: Q04DX003 (ip), vehicle: saline 95 % of control

CC1=CN(C)C(=O)CC1
inactive: [10] 96 % of control | [11] 96 % of control | [12] 104 % of control

COc1cc(OC)c2c(c1)-n1cccc1C2=O
inactive: [17] 101 % of control | [18] 104 % of control | dose: 400.0 mg/kg/injection, schedule: Q04DX002 (ip), vehicle: Klucel (hydroxypropylcellulose) (HPC) 93 % of control

CCC(=O)c1ccc(OC)cc1
inactive: [19] 91 % of control | [20] 91 % of control | [21] 91 % of control

CNc1nc(Cl)ncc1C
inactive: dose: 0.2 mg/kg/injection, schedule: Q01DX Z (ip), vehicle: methylcellulose (MC) 90 % of control | dose: 0.5 mg/kg/injection, schedule: Q01DX Z (ip), vehicle: methylcellulose (MC) 89 % of control

Nc1ccc2c(ccc3cccc[n+]32)c1
inactive: [13] 105 % of control | [14] 108 % of control

CC(=O)Nc1ccc(S(=O)(=O)Oc2ccc([N+](=O)[O-])cc2)cc1
inactive: [22] 94 % of control | dose: 50.0 mg/kg/injection, schedule: Q01DX009 (ip), vehicle: saline 96 % of control | dose: 100.0 mg/kg/injection, schedule: Q01DX009 (ip), vehicle: saline 94 % of control | dose: 400.0 mg/kg/injection, schedule: Q01DX009 (ip), vehicle: saline 100 % of control

CCCCOC(=O)Nc1cccc(O)c1
inactive: [4] 92 % of control | [6] 87 % of control

COC(=O)c1ccc(C(=O)OC)nc1
inactive: [23] 106 % of control | [17] 95 % of control | [18] 103 % of control

CC(=O)OCCc1nnnn1C
inactive: [13] 108 % of control | [14] 104 % of control | dose: 400.0 mg/kg/injection, schedule: Q01DX001 (ip), vehicle: saline 103 % of control

C[n+]1ccc(/C=C\Nc2ccccc2)cc1
inactive: dose: 75.0 mg/kg/injection, schedule: Q01DX001 (ip), vehicle: other 94 % of control | dose: 150.0 mg/kg/injection, schedule: Q01DX001 (ip), vehicle: other 94 % of control | dose: 300.0 mg/kg/injection, schedule: Q01DX001 (ip), vehicle: other 94 % of control

O=[N+]([O-])c1cccc(/C=N/NC(=S)Nc2ccccc2)c1
inactive: [15] 89 % of control | [16] 93 % of control

S=C([SH2+])[SH2+].S=C([SH2+])[SH2+].[Pt+2].c1ccc(C[P+](c2ccccc2)(c2ccccc2)c2ccccc2)cc1
inactive: dose: 12.5 mg/kg/injection, schedule: Q01DX009 (ip), vehicle: saline 96 % of control | [22] 97 % of control

N#CSC(C(=O)c1ccccc1)c1ccccc1 (centres undefined)
inactive: [5] 92 % of control | [7] 91 % of control | [9] 92 % of control

O=C1C=CC(=Nc2ccc(Cl)cc2)O1
inactive: [4] 104 % of control | [6] 102 % of control | [8] 97 % of control

O=C1c2cccc3c([N+](=O)[O-])ccc(c23)C(=O)N1Cc1cccnc1
inactive: dose: 25.0 mg/kg/injection, schedule: Q04DX002 (ip), vehicle: Klucel (hydroxypropylcellulose) (HPC) 106 % of control | [23] 100 % of control | [17] 103 % of control and 86 % of control | [18] 101 % of control

O=[N+]([O-])c1ccc(N=C(Nc2ccc([N+](=O)[O-])cc2)c2ccccc2)cc1
inactive: dose: 100.0 mg/kg/injection, schedule: Q01DX009 (ip), vehicle: other 92 % of control | dose: 100.0 mg/kg/injection, schedule: Q04DX003 (ip), vehicle: other 96 % of control | dose: 200.0 mg/kg/injection, schedule: Q01DX009 (ip), vehicle: other 101 % of control | dose: 200.0 mg/kg/injection, schedule: Q04DX003 (ip), vehicle: other 102 % of control | dose: 400.0 mg/kg/injection, schedule: Q01DX009 (ip), vehicle: other 97 % of control | dose: 400.0 mg/kg/injection, schedule: Q04DX003 (ip), vehicle: other 91 % of control

ICc1cc(CI)c(CI)cc1CI
inactive: [5] 92 % of control | [7] 91 % of control | [9] 91 % of control

Cc1ccc(Cl)cc1NC(=O)Nc1ccccc1F
inactive: [24] 94 % of control | dose: 50.0 mg/kg/injection, schedule: Q04DX003 (ip), vehicle: saline with Tween-80 86 % of control and 91 % of control | dose: 100.0 mg/kg/injection, schedule: Q01DX001 (ip), vehicle: saline with Tween-80 92 % of control | [4] 103 % of control and 105 % of control | [19] 98 % of control and 92 % of control | [5] 104 % of control and 90 % of control | dose: 200.0 mg/kg/injection, schedule: Q01DX001 (ip), vehicle: saline with Tween-80 92 % of control | [6] 98 % of control and 90 % of control | [20] 95 % of control and 92 % of control | dose: 400.0 mg/kg/injection, schedule: Q01DX001 (ip), vehicle: saline with Tween-80 89 % of control | [8] 94 % of control and 92 % of control | [21] 90 % of control and 92 % of control

C(=C\[P+](Cc1ccccc1)(c1ccccc1)c1ccccc1)/c1ccccc1
inactive: dose: 12.5 mg/kg/injection, schedule: Q04DX003 (ip), vehicle: saline with Tween-80 100 % of control | [24] 92 % of control
